Here are results for 16 compounds from patent US20240043435A1, “TYK-2 INHIBITOR” (BEIGENE, LTD., priority 2020, published 2024).

Some results are limits rather than exact numbers.

Assay [1] addresses T1, TYK2-JH2 (aa 575-869, in-house) protein (Homo sapiens, UniProt P29597).
T1 construct: TYK2-JH2 (aa 575-869, in-house) protein; made in house
Description: TYK2-JH2 biochemical assay (HTRF probe displacement). The format is binding. The settings on record: Biochemical assay; read-out: TYK2-JH2 IC50. The essentials:
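Recombinant TYK2-JH2 (0.2 nM) was pre-incubated 0.5 h at room temperature with compounds (10 doses, 5-fold dilution; 500× DMSO stocks from 500 uM) in 20 mM HEPES pH 7.5, 10 mM MgCl2, 0.005% BSA, 2 mM DTT, 0.015% Brij-35. Probe displacement was read by HTRF (ex337, em620/665 nm); IC50 from four-parameter logistic fit.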
A general note: TR-FRET usually uses a lanthanide donor and a delayed reading to cut background.

The test system of a further assay is pSTAT5/GM-CSF. Description: pSTAT5/GM-CSF cellular assay (JAK2 selectivity). The format is cell-based. The settings on record: for Selectivity fold (TYK2/JAK2): pSTAT5/GM-CSF IC50 over pSTAT4/IL-12 IC50.
In assay [2] the test system is JAK2, TYK2/p-STAT4 (Tyr693) activated by IL-12 in NK-92 cell line. Description: IL-12-JAK2, TYK2/p-STAT4 (Tyr693) inhibition IC50 cellular assay. The format is cell-based. The settings on record: NK92, Cellular assay; read-out: pSTAT4/IL-12 IC50. The essentials: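 NK-92 cells were starved overnight without IL-2 and preincubated 1 h at 37° C with compound (8 doses, 10000–0.61 nM, 4-fold, 0.2% DMSO). They were then stimulated with IL-12 (40 ng/ml final) for 30 min. Lysate p-STAT4 (Tyr693) was read by AlphaLISA SureFire; IC50 from four-parameter logistic fit.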

T1 sequence (P29597 575-869): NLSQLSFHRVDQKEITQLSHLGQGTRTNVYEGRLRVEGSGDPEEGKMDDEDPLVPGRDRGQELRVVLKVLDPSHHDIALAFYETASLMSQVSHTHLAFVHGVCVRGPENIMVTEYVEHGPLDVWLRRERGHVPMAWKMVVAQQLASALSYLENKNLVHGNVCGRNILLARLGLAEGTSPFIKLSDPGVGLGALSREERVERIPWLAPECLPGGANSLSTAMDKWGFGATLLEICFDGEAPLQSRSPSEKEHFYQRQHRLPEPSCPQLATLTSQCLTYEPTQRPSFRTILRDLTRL

`CC(=O)Nc1cc(Nc2cc(C(F)(F)F)cc(S(C)(=O)=O)c2)c(-c2ccn(C(C)C)n2)cn1` [Example M25, N-(5-(1-isopropyl-1H-pyrazol-3-yl)-4-((3-(methylsulfonyl)-5-(trifluoromethyl)phenyl)amino)pyridin-2-yl)acetamide]: the values for the IC50 (in assay [1]; in the assay with pSTAT5/GM-CSF; in assay [2]) were 0.096 nM, greater than 10000 nM and 15.2 nM, respectively. The “Selectivity fold (TYK2/JAK2)” value in the assay with pSTAT5/GM-CSF is listed as greater than 659 fold.

For the compound `CC(=O)Nc1cc(Nc2cc(OC(C)C)cc(S(C)(=O)=O)c2)c(-c2ccn(C(C)C)n2)cn1` [Example M26, N-(4-((3-isopropoxy-5-(methylsulfonyl)phenyl)amino)-5-(1-isopropyl-1H-pyrazol-3-yl)pyridin-2-yl)acetamide], the results for the IC50 (in assay [1]; with pSTAT5/GM-CSF; in assay [2]) were 0.046 nM, greater than 10000 nM and 4.33 nM, respectively. Also, in the assay on pSTAT5/GM-CSF, the “Selectivity fold (TYK2/JAK2)” value is recorded as greater than 2309 fold.

Turning to `COc1cc(Nc2cc(NC(C)=O)ncc2-c2ccn(C(C)C)n2)cc(S(C)(=O)=O)c1` [Example M27, N-(5-(1-isopropyl-1H-pyrazol-3-yl)-4-((3-methoxy-5-(methylsulfonyl)phenyl)amino)pyridin-2-yl)acetamide], the IC50 in assay [1] was 0.035 nM; in the assay on pSTAT5/GM-CSF, greater than 10000 nM; in assay [2], 3.85 nM. For the same compound, the “Selectivity fold (TYK2/JAK2)” value in the assay on pSTAT5/GM-CSF is given as greater than 2597 fold.

Turning to `CC(=O)Nc1cc(Nc2cc(OCCO)cc(S(C)(=O)=O)n2)c(-c2ccn(C(C)C)n2)cn1` [Example M28, N-(4-((4-(2-hydroxyethoxy)-6-(methylsulfonyl)pyridin-2-yl)amino)-5-(1-isopropyl-1H-pyrazol-3-yl)pyridin-2-yl)acetamide], the IC50 was 0.032 nM in assay [1], greater than 10000 nM in the assay on pSTAT5/GM-CSF and 16.6 nM in assay [2]. In addition, the “Selectivity fold (TYK2/JAK2)” value with pSTAT5/GM-CSF is listed as greater than 601 fold.

In the case of `CC(=O)Nc1cc(Nc2cccc(S(C)(=O)=O)c2)c(-c2ccn(C3CCOC3)n2)cn1` (stereo not shown) [Example M30, N-(4-((3-(methylsulfonyl)phenyl)amino)-5-(1-(tetrahydrofuran-3-yl)-1H-pyrazol-3-yl)pyridin-2-yl)acetamide], the IC50 in assay [1] is 0.049 nM; in the assay with pSTAT5/GM-CSF, greater than 10000 nM; in assay [2], 11.2 nM. In addition, in the assay with pSTAT5/GM-CSF, the “Selectivity fold (TYK2/JAK2)” value is given as greater than 892 fold.

Take `CC(=O)Nc1cc(Nc2cc(C)cc(S(C)(=O)=O)n2)c(-c2ccn(C3CCOC3)n2)cn1` (stereo not shown) [Example M31, N-(4-((4-methyl-6-(methylsulfonyl)pyridin-2-yl)amino)-5-(1-(tetrahydrofuran-3-yl)-1H-pyrazol-3-yl)pyridin-2-yl)acetamide]: the IC50 in assay [1] is 0.031 nM; in the assay on pSTAT5/GM-CSF it was 1420 nM; in assay [2] it was 0.828 nM. Moreover, the “Selectivity fold (TYK2/JAK2)” value in the assay with pSTAT5/GM-CSF was determined as 1714 fold.

On to `CC(=O)Nc1cc(Nc2cc(OC(C)C)cc(S(C)(=O)=O)n2)c(-c2ccn([C@H]3CCOC3)n2)cn1` [Example M33, (S)-N-(4-((4-isopropoxy-6-(methylsulfonyl)pyridin-2-yl)amino)-5-(1-(tetrahydrofuran-3-yl)-1H-pyrazol-3-yl)pyridin-2-yl)acetamide], for which the IC50 in assay [1] is 0.027 nM; in the assay on pSTAT5/GM-CSF, greater than 10000 nM; in assay [2], 0.648 nM. The “Selectivity fold (TYK2/JAK2)” value with pSTAT5/GM-CSF is greater than 15432 fold.

`CC(=O)Nc1cc(Nc2cc(OC(C)C)cc(S(C)(=O)=O)n2)c(-c2ccn([C@@H]3CCOC3)n2)cn1` [Example M34, (R)-N-(4-((4-isopropoxy-6-(methylsulfonyl)pyridin-2-yl)amino)-5-(1-(tetrahydrofuran-3-yl)-1H-pyrazol-3-yl)pyridin-2-yl)acetamide]: the IC50 in assay [1] was 0.024 nM; in the assay with pSTAT5/GM-CSF, greater than 10000 nM; in assay [2], 0.402 nM. In addition, the “Selectivity fold (TYK2/JAK2)” value with pSTAT5/GM-CSF is recorded as greater than 24875 fold.

For the compound `COc1cc(Nc2cc(NC(C)=O)ncc2-c2ccn([C@@H]3CCOC3)n2)nc(S(C)(=O)=O)c1` [Example M35, (R)-N-(4-((4-methoxy-6-(methylsulfonyl)pyridin-2-yl)amino)-5-(1-(tetrahydrofuran-3-yl)-1H-pyrazol-3-yl)pyridin-2-yl)acetamide], the IC50 is 0.036 nM in assay [1], greater than 10000 nM in the assay on pSTAT5/GM-CSF and 50.2 nM in assay [2]. In addition, the “Selectivity fold (TYK2/JAK2)” value with pSTAT5/GM-CSF was greater than 199 fold.

Turning to `CC(=O)Nc1cc(Nc2cccc(S(C)(=O)=O)n2)c(-c2cc(C)n(C)n2)cn1` [Example N1, N-(5-(1,5-dimethyl-1H-pyrazol-3-yl)-4-((6-(methylsulfonyl)pyridin-2-yl)amino)pyridin-2-yl)acetamide], the values for the IC50 (in assay [1]; in the assay with pSTAT5/GM-CSF; in assay [2]) were 0.077 nM, 2130 nM and 0.247 nM, respectively. In the assay on pSTAT5/GM-CSF, the “Selectivity fold (TYK2/JAK2)” value was determined as 8635 fold.

For `CC(=O)Nc1cc(Nc2cc(OC(C)C)cc(S(C)(=O)=O)n2)c(-c2cc(C)n(C)n2)cn1` [Example N2, N-(5-(1,5-dimethyl-1H-pyrazol-3-yl)-4-((4-isopropoxy-6-(methylsulfonyl)pyridin-2-yl)amino)pyridin-2-yl)acetamide], the IC50 is 0.021 nM in assay [1], greater than 10000 nM in the assay with pSTAT5/GM-CSF and 0.641 nM in assay [2]. Besides, the “Selectivity fold (TYK2/JAK2)” value in the assay with pSTAT5/GM-CSF is recorded as greater than 15600 fold.

Take `CC(=O)Nc1cc(Nc2cc(OCCO)cc(S(C)(=O)=O)c2)c(-c2cc(C)n(C)n2)cn1` [Example N3, N-(5-(1,5-dimethyl-1H-pyrazol-3-yl)-4-((3-(2-hydroxyethoxy)-5-(methylsulfonyl)phenyl)amino)pyridin-2-yl)acetamide]: the IC50 in assay [1] is 0.033 nM; in the assay with pSTAT5/GM-CSF it was greater than 10000 nM; in assay [2], 12.6 nM. In addition, the “Selectivity fold (TYK2/JAK2)” value in the assay on pSTAT5/GM-CSF is on record as greater than 791 fold.

On to `COc1cc(Nc2cc(NC(C)=O)ncc2-c2cc(C)n(C)n2)nc(S(C)(=O)=O)c1` [Example N4, N-(5-(1,5-dimethyl-1H-pyrazol-3-yl)-4-((4-methoxy-6-(methylsulfonyl)pyridin- -2-yl)amino)pyridin-2-yl)acetamide], for which the IC50 in assay [1] is 0.029 nM; in the assay on pSTAT5/GM-CSF, greater than 10000 nM; in assay [2], 0.137 nM. Further, the “Selectivity fold (TYK2/JAK2)” value in the assay with pSTAT5/GM-CSF was greater than 72992 fold.

For `COCCOc1cc(Nc2cc(NC(C)=O)ncc2-c2cc(C)n(C)n2)nc(S(C)(=O)=O)c1` [Example N5, N-(5-(1,5-dimethyl-1H-pyrazol-3-yl)-4-((4-(2-methoxyethoxy)-6-(methylsulfonyl)pyridin-2-yl)amino)pyridin-2-yl)acetamide], the IC50 in assay [1] was 0.039 nM; in the assay on pSTAT5/GM-CSF, greater than 10000 nM; in assay [2] it was 0.212 nM. In addition, the “Selectivity fold (TYK2/JAK2)” value in the assay with pSTAT5/GM-CSF was greater than 47169 fold.

Turning to `CO[C@H](C)COc1cc(Nc2cc(NC(C)=O)ncc2-c2cc(C)n(C)n2)nc(S(C)(=O)=O)c1` [Example N6, (R)-N-(5-(1,5-dimethyl-1H-pyrazol-3-yl)-4-((4-(2-methoxypropoxy)-6-(methylsulfonyl)pyridin-2-yl)amino)pyridin-2-yl)acetamide], the IC50 in assay [1] is 0.039 nM; in the assay on pSTAT5/GM-CSF it was greater than 10000 nM; in assay [2] it was 0.274 nM. Further, the “Selectivity fold (TYK2/JAK2)” value with pSTAT5/GM-CSF is listed as greater than 36496 fold.

In the case of `CCOc1cc(Nc2cc(NC(C)=O)ncc2-c2cc(C)n(C)n2)nc(S(C)(=O)=O)c1` [Example N7, N-(5-(1,5-dimethyl-1H-pyrazol-3-yl)-4-((4-ethoxy-6-(methylsulfonyl)pyridin-2-yl)amino)pyridin-2-yl)acetamide], the IC50 in assay [1] is 0.024 nM; with pSTAT5/GM-CSF, greater than 10000 nM; in assay [2], 1.43 nM. In addition, in the assay with pSTAT5/GM-CSF, the “Selectivity fold (TYK2/JAK2)” value is listed as greater than 6993 fold.
